According to patent US20180244653A1, “SELECTIVE ALPHA-7 NICOTINIC RECEPTOR AGONISTS AND METHODS FOR MAKING AND USING THEM” (THE REGENTS OF THE UNIVERSITY OF CALIFORNIA, priority 2015, published 2018):
“And” between values parts separate entries of the source, which are not always exact repeats. Equal values may be shown once. “Also recorded” adds a separate entry of the source. Read-outs that look alike come from different tables or passages of the source.

Key:
α7-nAChRs = target: T1, α7-nAChRs (Homo sapiens, UniProt P36544); assay: FRET functional assay (agonist/antagonist) using LGIC-CNiFERs; assay type: cell-based; conditions: for EC50: in presence of 10 μM PNU-120596, * partial agonist, read-out: Agonist EC50 ± SD, α7
T1 construct: expressed in transfected cells; host or cells: HEKtsA201 cells co-expressing TN-XXL
Protocol: (§1) Initially, the agonist properties of tested compounds were assessed directly. […] All α7-nAChR functional assays were performed in the presence of PNU-120596, an α7-nAChR positive allosteric modulator (PAM), to increase signal and delay the sensitization state of α7-nAChRs enabling the measurement of more prolonged FRET signals.^29 Compounds having agonist responses of >0.20 were determined for EC50, and compounds having inhibition fraction of >0.50 were determined for KA.^25 EC50>13.3 μM and KA>10 μM which are a screening concentration for agonist and antagonist, respectively were reported compounds not taken for further in the screening of receptor occupation and responses.
(§2) Agonist and antagonist elicited responses were characterized using the above CNiFER cell expressing Cys-loop ligand-gated ion channel (LGIC) receptors. […] A 96-well black, clear-bottom microplate (Greiner bio-one, Germany) was coated with poly-D-lysine (Sigma-Aldrich, St. Louis, Mo.) 50 μL/well for 30 min and washed out with Phosphate-Buffered Saline (PBS) (Corning, Cellgro, Manassas, Va.) before plating the cells. After plating and incubation at 37° C. for 1 day, the media was replaced with 100 μL of artificial cerebrospinal fluid (aCSF: 121 mM NaCl, 5 mM KCl, 26 mM NaHCO3, 1.2 mM NaH2PO4H2O, 10 mM glucose, 2.4 mM CaCl2, 1.3 mM MgSO4, 5 mM HEPES, pH 7.4) for 4032 and 5HT3A receptors, whereas 10 μM PNU-120596 (Tocris Bioscience, Bristol, UK) in aCSF with 30 min incubation at 37° C. was used for α7-nAChR. The tested compounds were prepared in aCSF for all receptors except α7-nAChR, where 10 μM PNU-120596, a positive allosteric modulator (PAM) was used. The prepared compounds were added in a separate 96-well polypropylene plate (Costar, Corning, N.Y.). Experiments were conducted at 37° C. using 436-nm excitation. Emitted light was collected at 485 nm and 528 nm. Basal fluorescence was recorded for 30 s, followed by addition of 50 μL of ligand (first addition). Measurements were made at 3.84 s intervals for 2 min to measure the agonistic effect. […] Agonist and antagonist properties were sequentially screened at the final concentration of 13.3 and 10 μM, respectively, which differed from the screening concentration from intact cell binding assay (10 μM).

5HT3A receptors [1] = target: T2, 5HT3A receptors (Mus musculus, UniProt P23979); assay: as above; assay type: cell-based; conditions: for Kd / Antagonist KA ± SD, 5HT3A: competitive antagonist (^C), vs 5-HT; for Kd: read-out: Antagonist KA ± SD, 5HT3A; for EC50: read-out: Agonist EC50 ± SD, 5HT3A; for Functional properties at 5HT3A receptors (agonist / antagonist, type): functional screening and characterization
T2 construct: expressed in transfected cells; host or cells: HEK293 cells co-expressing TN-XXL
T2 sequence (P23979 24-489): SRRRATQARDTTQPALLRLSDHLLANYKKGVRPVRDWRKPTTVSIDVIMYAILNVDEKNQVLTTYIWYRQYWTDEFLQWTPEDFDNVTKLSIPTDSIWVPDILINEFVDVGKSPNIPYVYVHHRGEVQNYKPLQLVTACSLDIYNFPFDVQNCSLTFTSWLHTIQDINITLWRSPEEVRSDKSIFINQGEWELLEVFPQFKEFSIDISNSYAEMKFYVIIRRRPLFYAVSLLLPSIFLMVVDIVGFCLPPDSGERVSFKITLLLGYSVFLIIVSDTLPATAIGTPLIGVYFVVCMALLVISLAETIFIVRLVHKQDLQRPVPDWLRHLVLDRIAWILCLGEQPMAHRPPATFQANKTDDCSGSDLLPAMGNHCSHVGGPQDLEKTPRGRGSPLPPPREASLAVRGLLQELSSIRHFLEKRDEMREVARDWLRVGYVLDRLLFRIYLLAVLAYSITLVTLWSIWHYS
Protocol: as §1, §2

α4β2-nAChRs [2] = target: T3, α4β2-nAChRs (Homo sapiens, UniProt P17787+P43681); assay: as above; assay type: cell-based; conditions: for Functional properties at α4β2-nAChRs (agonist / antagonist, type): functional screening and characterization
T3 construct: expressed in transfected cells; host or cells: HEKtsA201 cells co-expressing TN-XXL
Protocol: as §1, §2

[3] = target: α7/5HT3A chimera receptor (hα7/m5HT3A), used for α7-nAChRs (UniProt P23979+P36544, M226I/T225I); assay: Intact cell competitive radioligand binding assay ([3H]-(±)-epibatidine, SPA), LGIC-CNiFERs; conditions: for Kd: read-out: Kd ± SD, α7-nAChRs, >10 = did not pass initial screen at 10 μM
5HT3A receptors [4] = target: T2, 5HT3A receptors; assay: Intact cell competitive radioligand binding assay ([3H]-granisetron, SPA), LGIC-CNiFERs; conditions: >10 = did not pass initial screen at 10 μM
α4β2-nAChRs [5] = target: T3, α4β2-nAChRs; assay: Intact cell competitive radioligand binding assay ([3H]-(±)-epibatidine, SPA), LGIC-CNiFERs; conditions: 10 μM, more than 50% radioligand displacement
[6] = >10 = did not pass initial screen
[7] = read-out: Antagonist KA ± SD, α4β2
[8] = competitive antagonist (^C), >10 = did not pass initial screen, vs (±)-epibatidine
[9] = non-competitive antagonist (^NC)
[10] = competitive antagonist (^C), >10 = did not pass initial screen, vs (±)-epibatidine, read-out: Antagonist KA ± SD, α4β2
[11] = Antagonist KA ± SD, α4β2, competitive antagonist (^C), >10 = did not pass initial screen, vs (±)-epibatidine
[12] = read-out: Antagonist KA ± SD, α4β2, non-competitive

Row | SMILES | EC50 (α7-nAChRs; [6]) | Kd (5HT3A receptors [1]; [6]) | EC50 (5HT3A receptors [1]) | Kd [3] | Functional properties at 5HT3A receptors (agonist / antagonist, type) (5HT3A receptors [1]) | further results
1 | O=Cc1c[nH]c2ccc(-c3cn(CCN4CCCCC4)nn3)cc12 [PPRD5, 5-((1-(2-Piperidin-1-yl)ethyl)-1,2,3-triazol-4-yl)-indole-3-carbaldehyde] | 1050 ± 170 nM | > 10 µM | > 10000 nM | 3.27 µM | – | Kd (α4β2-nAChRs [2]; [7]): > 10 µM
2 | c1cc2cc(-c3cn(CCN4CCCCC4)nn3)ccc2[nH]1 [IND1, 5-(1-(2-(Piperidin-1-yl)ethyl)-1H-1,2,3-triazol-4-yl)-1H-indole] | 170 nM | > 10 µM | > 10000 nM | – | agonist and antagonist responses were not observed | Fold increase in α7-nAChR agonist potency over lead compound TTIn-1 (α7-nAChRs): 3.5 fold; Kd (α4β2-nAChRs [2]; [7]): > 10 µM; Kd (5HT3A receptors [4]; read-out: Kd ± SD, 5HT3A): 5520 nM
3 | c1ccc2c(-c3cn(CCN4CCCCC4)nn3)c[nH]c2c1 [PPRD12] | – | – | – | – | competitive antagonist | Antagonist KA ± SD, α7 (α7-nAChRs; [8]): 4.5 ± 1.5^C, μM; Functional properties at α7-nAChRs (agonist / antagonist) (α7-nAChRs; functional screening and characterization): weak and non-selective α7-nAChR antagonists; Antagonist KA ± SD, α7, non-competitive (α7-nAChRs; [9]): 11.3 ± 4.5^NC μM; Antagonist KA ± SD, 5HT3A (5HT3A receptors [1]; [6]): 2.1 ± 0.3^C μM; Kd (α4β2-nAChRs [2]; [10]): >10 µM; Kd (5HT3A receptors [4]; read-out: Kd ± SD, 5HT3A): 2550 nM and 2600 nM
4 | CN(C)CCn1cc(-c2ccc3[nH]ccc3c2)nn1 [IND12, 5-(1-(2-(N,N-Dimethylamino)ethyl)-1H-1,2,3-triazol-4-yl)-1H-indole] | 5740 nM | – | – | 7.68 µM | mix-competitive antagonist | –
5 | COC(=O)c1cc(-c2cn(CCN3CCCCC3)nn2)ccc1O [PPRD14, Methyl 2-hydroxy-5-(1-(2-(piperidin-1-yl)ethyl)-1,2,3-triazol-4-yl)benzoate] | > 10000 nM | 1.44 µM and 1.4 µM | – | > 10 µM | competitive antagonist | Kd (α7-nAChRs; competitive antagonist (^C), >10 = did not pass initial screen, vs (±)-epibatidine, read-out: Antagonist KA ± SD, α7): > 10 µM; Kd (α4β2-nAChRs [2]; [7]): > 10 µM
6 | c1cc2cc(-c3cn(CCCCN4CCCCC4)nn3)ccc2[nH]1 [IND3, 5-(1-(4-(Piperidin-1-yl)butyl)-1H-1,2,3-triazol-4-yl)-1H-indole] | 910 nM | – | – | 13.8 µM | – | –
7 | Cn1ccc2cc(-c3cn(CCN4CCCCC4)nn3)ccc21 [PPRD9, 1-(2-((1-Methyl-5-indolyl)-1,2,3-triazol-1-yl)ethyl)piperidine] | 12900 nM | – | – | 12.1 µM | mixed (competitive,non-competive) antagonist | Antagonist KA ± SD, 5HT3A (5HT3A receptors [1]; [6]): 15.1 ± 4.0^C, μM; Antagonist KA ± SD, 5HT3A, non-competitive (5HT3A receptors [1]; [9]): 56.0 ± 31.0^NC μM; Antagonist KA ± SD, α4β2 (α4β2-nAChRs [2]; [8]): 10.5 ± 3.1^C,^ μM; Functional properties at α4β2-nAChRs (agonist / antagonist, type) (α4β2-nAChRs [2]): α4β2-nAChR antagonists; also recorded: mix-competitive antagonist; Antagonist KA ± SD, α4β2, non-competitive (α4β2-nAChRs [2]; [9]): 25.5 ± 12.8^NC μM
8 | COC(=O)c1cc(-c2cn(CCN3CCCCC3)nn2)ccc1N [PPRD15, Methyl 2-amino-5-(1-(2-(piperidin-1-yl)ethyl)-1,2,3-triazol-4-yl)benzoate] | 3100 nM | 6 µM | – | 4.4 µM | competitive antagonist | Kd (α4β2-nAChRs [2]; [7]): > 10 µM
9 | COC(=O)c1cc(-c2cn(C3CN4CCC3CC4)nn2)ccc1N (stereo not drawn) [QND15, Methyl 2-amino-5-(1-(quinuclidin-3-yl)-1H-1,2,3-triazol-4-yl)benzoate] | 1340 nM | – | 260 ± 30 nM | 3.61 µM | 5HT3A receptor agonist properties | Kd (α4β2-nAChRs [2]; [11]): 11.6 ± 1 µM; Functional properties at α4β2-nAChRs (agonist / antagonist, type) (α4β2-nAChRs [2]): competitive antagonism; Fold lower affinity for α7-nAChRs than QND2 [3]: 10 fold; Kd (5HT3A receptors [4]; Kd ± SD, 5HT3A): 40 nM
10 | CN1[C@@H]2CCC[C@H]1CC(n1cc(-c3ccc4[nH]ccc4c3)nn1)C2 (stereo partly drawn) [IND7, 5-(1-((1R,5S)-9-Methyl-9-azabicyclo[3.3.1]nonan-3-yl)-1H-1,2,3-triazol-4-yl)-1H-indole] | – | – | – | 4.52 µM | agonist and antagonist responses were not observed | Functional properties at α4β2-nAChRs (agonist / antagonist, type) (α4β2-nAChRs [2]): weak antagonistic properties; Kd (α4β2-nAChRs [2]; [12]): 22.2 µM
11 | c1cc2c(cc1-c1cn(C3CN4CCC3CC4)nn1)OCO2 (stereo not drawn) [QND1, 3-(4-(Benzo-1,3-dioxol-5-yl)-1,2,3-triazol-1-yl)quinuclidine] | 120 ± 40 nM | – | 300 ± 40 nM | 0.16 µM | – | Kd (α4β2-nAChRs [2]; [11]): > 10 µM; Kd (5HT3A receptors [4]; Kd ± SD, 5HT3A): 20 to 50 nM
12 | c1ccc2c(-c3cn(C4CN5CCC4CC5)nn3)c[nH]c2c1 (stereo not drawn) [QND12, 3-(4-(Indol-3-yl)-1,2,3-triazol-1-yl)quinuclidine] | 450 ± 140 nM | – | 340 ± 130 nM | 0.92 µM | – | Kd (α4β2-nAChRs [2]; [11]): > 10 µM; Fold increase of Kd (α7-nAChRs) compared to IND8 [3]: 9 fold; Kd (5HT3A receptors [4]; Kd ± SD, 5HT3A): 20 to 50 nM and 20 nM
13 | CN1CCCC(n2cc(-c3ccc4[nH]ccc4c3)nn2)C1 (stereo not drawn) [IND11, 5-(1-(1-Methylpiperidin-3-yl)-1H-1,2,3-triazol-4-yl)-1H-indole] | 3300 nM | – | – | 5.07 µM | – | –
14 | c1cc2cc(-c3cn(CCCN4CCCCC4)nn3)ccc2[nH]1 [IND2, 5-(1-(3-(Piperidin-1-yl)propyl)-1H-1,2,3-triazol-4-yl)-1H-indole] | 2200 nM | – | – | 7.2 µM | agonist and antagonist responses were not observed | –
15 | Nc1ccc(-c2cn(C3CN4CCC3CC4)nn2)cc1 (stereo not drawn) [QND2, 3-(4-Aminophenyl-1,2,3-triazol-1-yl)quinuclidine] | 50 nM | – | – | – | 5HT3A receptor agonist properties | Fold increase in α7-nAChR agonist potency over lead compound TTIn-1 (α7-nAChRs): 20 fold; EC50 (5HT3A receptors [1]; * partial agonist, >10 = did not pass initial screen): 1630 ± 290 nM; Kd (α4β2-nAChRs [2]; [10]): >10 µM; Kd (5HT3A receptors [4]; read-out: Kd ± SD, 5HT3A): 1210 nM
16 | COc1ccc2cc(-c3cn(C4CN5CCC4CC5)nn3)ccc2c1 (stereo not drawn) [QND6, 3-(4-(6-Methoxynaphthalen-2-yl)-1,2,3-triazol-1-yl)quinuclidine] | 22000 ± 6000 nM | > 10 µM | > 10000 nM | – | – | Kd (α4β2-nAChRs [2]; [11]): 7 ± 4.5 µM; Functional properties at α4β2-nAChRs (agonist / antagonist, type) (α4β2-nAChRs [2]): mix-competitive antagonist; Kd (α4β2-nAChRs [2]; [12]): 6.2 ± 0.4 µM; Initial screening for binding to α4β2-nAChRs (α4β2-nAChRs [5]): associate well with α4β2-nAChRs
